# Results: ChEMBL document CHEMBL3045394, “Synthesis and antiinflammatory activity of certain benzothieno[3,2-d][1,2,4]triazolo[4,3-b] pyridazine derivatives” (2012)
# System: Rattus norvegicus
# Assay: Anti-inflammatory activity inRattus norvegicus albino (rat) assessed as inhibition of carageenaan-induced paw edema at 10 mg/kg, po administered 1 hr prior to carrageenan-challenge measured after 4 hr relative to control
row,Structure (SMILES),inhibition in vivo at 10 mg/kg [%]
1,COc1ccc2c(c1)c(CC(=O)O)c(C)n2C(=O)c1ccc(Cl)cc1 [INDOMETHACIN],50.5
2,NNc1nn2cnnc2c2c1sc1c(Br)cccc12,52.8
3,Oc1nn2cnnc2c2c1sc1c(Br)cccc12,9.7
4,COc1ccccc1-c1nnc2c3c(sc4c(Br)cccc43)c(NN)nn12,78.7
5,COc1ccccc1-c1nnc2c3c(sc4c(Br)cccc43)c(N3CCCCC3)nn12,8.4
